Test: Ellipsometry of dry TA/MnP-PVPON films at pH 5 and pH 2.5 (film stability)
Format: physicochemical
Protocol: The stability of the MnP-PVPON/TA multilayers dried from pH=2.5 was examined since ionization of TA is minimized at this pH (below the pKa of TA), which could result in destabilization of the film.
Ellipsometry: Film thickness was measured using a M2000U spectroscopic ellipsometer (Woollam). Single-side polished silicon wafers 500-μm-thick (University Wafer) of 20 mm×50 mm were cleaned in a mixture of concentrated sulfuric acid and Nocromix (Godax Laboratories) for 24 hours, washed with DI water, dried with a stream of nitrogen (Airgas) and used immediately thereafter. First, a precursor layer of poly(ethyleneimine) (PEI, Sigma-Aldrich) was adsorbed onto the wafer surface from 1 mg mL^−1 PEI aqueous solution for 10 min. After that the deposition of TA, PVPON and MnP-PVPON onto silicon wafers coated with a PEI layer was performed using a 5-mL liquid flow-through cell (Woollam) at pH=5 and pH=7.2 (0.01 M phosphate buffer). The pH values of 0.01 M phosphate buffers were adjusted using 0.1 M HCl and NaOH aqueous solutions. Dry thickness measurements were performed between 400 and 1000 nm at 65, 70, and 75° angles of incidence, while wet thickness studies were monitored at 75° incidence angle. […] The thickness of silicon oxide was determined using known optical constants. […]

Layer thickness: 1.8 nm
Total thickness: 4.1 nm
SMILES: O=C(OC[C@H]1O[C@@H](OC(=O)c2cc(O)c(O)c(OC(=O)c3cc(O)c(O)c(O)c3)c2)[C@H](OC(=O)c2cc(O)c(O)c(OC(=O)c3cc(O)c(O)c(O)c3)c2)[C@@H](OC(=O)c2cc(O)c(O)c(OC(=O)c3cc(O)c(O)c(O)c3)c2)[C@@H]1OC(=O)c1cc(O)c(O)c(OC(=O)c2cc(O)c(O)c(O)c2)c1)c1cc(O)c(O)c(OC(=O)c2cc(O)c(O)c(O)c2)c1 [TA, tannic acid]
